“Also recorded” adds a separate entry of the source.
Key:
[1] = Plasma concentrations during 7-day oral dosing in beagle dogs; format: in vivo; conditions: male, beagle, dog, in vivo, po, 1.5 mg/kg/day
[2] = system: Amphetamine-Induced Hyperlocomotion; test: Compound 1 effect on amphetamine-induced hyperlocomotion (open field); format: in vivo, mice; conditions: for average (mean) centimeters traveled over 30 minutes: open field, vehicle cohort 7500 cm
Method: The hyperdopaminergic state underlying LID was modeled in naïve male wild-type c57/B16 mice by administration of d-amphetamine, a drug which rapidly elevates synaptic dopamine levels.
A single dose of 3 mg/kg of intraperitoneal (IP) d-amphetamine was administered to 32 male wild-type c57/B16 mice at approximately 8-weeks of age. Subsequently, the animals were subdivided into 3 groups and co-administered either a single dose of intraperitoneal vehicle only, Compound 1 at 0.3 mg/kg, or Compound 1 at 1 mg/kg. The locomotor behavior of the animals in an open field chamber (44 cm×44 cm×20 cm dimension) was monitored using a video tracking system (Noldus EthoVision v15). Over 30 minutes, the average (mean) centimeters traveled (+standard deviation) identified were: • 7500 cm (±314.9) in vehicle cohort • 5141 cm (±805.6) in the Compound 1 0.3 mg/kg cohort ([…] one-way ANOVA followed by Tukey's multiple comparison) • 2008 cm (±406.2) in the Compound 1 1.0 mg/kg cohort (p <0.001)

[3] = Clinical observations during 7-day oral dosing in beagle dogs; conditions: Group 1: Compound 1 1.5 mg/kg/day PO, individual dog, 1.5 mg/kg/day
in vivo = conditions: cynomolgus monkey, po
Method: The following example characterized the pharmacokinetics (PK) of Compound 1 in Cynomolgus Monkey following single oral (PO) Compound 1 dose administration. The compound was administered via oral gavage at 0.3 mg/kg and 1 mg/kg, formulated as solution in saline. After dosing, plasma was collected to characterize the PK profiles of Compound 1.

[4] = Post-procedure plasma exposure (salivation study); format: in vivo, Sprague Dawley rats; conditions: male, Sprague Dawley, rat, in vivo, 1.5 mg/kg, Plasma Concentration 1-Hour Post-procedure (mean value), Compound 1
Method: (§1) An in vivo primary pharmacology study evaluating the fesoterodine fumarate dose-response antagonistic effect on Compound 1 induced salivation in anaesthetized male Sprague Dawley rats was conducted. […] Intravenous fesoterodine doses were administered at […]. Fesoterodine was dosed 10 minutes prior to dosage of Compound 1. All animals were normal with no observed abnormality detected in clinical signs or behavior. Salivation was measured by using oral dry swab in anesthetized rats with the calculated difference between the dry swab weight and the wet swab weight indicating the weight of saliva produced. Samples were collected post-dosing for one hour at 10-minute intervals.
At the end of the study period, plasma samples were collected to measure exposure of Compound 1, fesoterodine fumarate, and fesoterodine active metabolite 5-hydroxymethyl tolterodine (5-HMT), also referred to as desfesoterodine, is summarized in Table 2.

[5] = Plasma pharmacokinetics after single-dose intravenous administration in rats; format: in vivo, Sprague Dawley rats; conditions: rat, in vivo, iv, 1.5 mg/kg
Method: The plasma concentration-time profile was evaluated for fesoterodine active metabolite desfesoterodine and Compound 1 in male Sprague Dawley rats following single-dose intravenous administration of fesoterodine (0.25 mg/kg) and Compound 1 (0.5 mg/kg and 1.5 mg/kg) alone and single-dose co-administration. Plasma exposures of desfesoterodine were similar following administration of fesoterodine alone and in combination with Compound 1.

[6] = Single ascending dose study: pharmacokinetics (plasma, CSF); format: in vivo
Method: (§2) Compound 1 was administered in a single ascending dose (SAD) study conducted in approximately 54 healthy adult volunteers to investigate Compound 1 pharmacokinetics, safety, and tolerability. The study was conducted in two groups.
(§3) Group 2 evaluated tolerability of Compound 1 at Group 1 MTD with or without fesoterodine fumarate co-administration. Subjects received 8 mg of fesoterodine fumarate tablet or matched placebo tablet 4 hours prior to administration of 40 mg of Compound 1.

[7] = system: Compound 1 induced salivation; test: Fesoterodine dose-response antagonistic effect on Compound 1 induced salivation in anaesthetized rats; format: in vivo, Sprague Dawley rats
Method: as §1

[8] = Single ascending dose study with or without fesoterodine fumarate: safety and tolerability; format: in vivo, healthy adult volunteers
Method: as §2
Group 1 evaluated multiple dose cohorts administered Compound 1 in a single ascending dose (SAD) manner to establish a maximum tolerated dose (MTD) using the doses described in Table 10.
MTD was established at the dose which produced mild to moderate cholinergic adverse effects. Cholinergic effects were monitored for each dose, including pupillometry and salivation.
as §3

[9] = Plasma concentration of Compound 1, Mean
[10] = Group 2, 40 mg Compound 1, 8 mg fesoterodine fumarate
[11] = Compound 1 (1.5 mg/kg) IV alone
[12] = Group 2: 40 mg Compound 1, 4 hours after 8 mg fesoterodine fumarate tablet or placebo tablet

Cc1noc([C@@]23CNC[C@@H]2C3)n1 [Compound 1, 1-(3-methyl-[1,2,4]oxadiazol-5-yl)-(1R,5R)-3-aza-bicyclo[3.1.0]hexane]
Plasma concentration of Compound 1, Mean ([1]; 1 h): 387 ng/mL
Plasma concentration of Compound 1, Mean ([1]; 2 h): 470.6 ng/mL
Plasma concentration of Compound 1, Mean ([1]; 4 h): 99.48 ng/mL
Plasma concentration of Compound 1, Mean ([1]; 8 h): 17.098 ng/mL
concentration at 1 h [1, 9]: 378 ng/mL
concentration at 2 h [1, 9]: 288 ng/mL
concentration at 4 h [1, 9]: 98.6 ng/mL
concentration at 8 h [1, 9]: 14.7 ng/mL
effect on hyperdopaminergic-mediated motor behavior ([2]; 0.3 and 1 mg/kg IP, d-amphetamine-treated mice): reverses hyperdopaminergic-mediated motor behavior in a dose-dependent manner
average (mean) centimeters traveled over 30 minutes ([2]; Compound 1 0.3 mg/kg IP co-administered with d-amphetamine 3 mg/kg IP, p<0.5): 5141 cm
average (mean) centimeters traveled over 30 minutes ([2]; Compound 1 1.0 mg/kg IP co-administered with d-amphetamine 3 mg/kg IP, p <0.001): 2008 cm
Clinical Observation ([3]; day 1): For D1005, ptyalism was found 1 hr 20 min after dosing on day 1; also recorded: For D1001, soft feces were found 1 hr 45 min after dosing on day 1; also recorded: For D1005, about 4 mL white foamy mucoid vomitus was found 40 min; also recorded: For D1005, soft feces was found 1 hr after dosing on day 1; also recorded: For D1005, about 8 mL yellow foamy mucoid vomitus was found 1 hr
Clinical Observation ([3]; day 3): For D1005, 20 mL chyme was found 45 min after dosing on day 3; also recorded: For D1005, soft feces was found 80 min after dosing on day 3; also recorded: For D1005, 20 mL liquid feces was found 3.5 hr after dosing on day 3; also recorded: For D1001, ptyalism was found 2 hr after dosing on day 3. 8 hr recover; also recorded: For D1001, 20 mL chyme and ptyalism were found 3.5 hr after dosing; also recorded: For D1002, 10 mL chyme was found 55 min after dosing on day 3; also recorded: For D1002, 10 mL liquid feces and ptyalism were found 80 min after; also recorded: For D1002, ptyalism was found 2 hr after dosing on day 3. 8 hr recover; also recorded: For D1003, ptyalism was found 2 hr after dosing on day 3. 8 hr recover; also recorded: For D1003, 10 mL chyme, 5 mL liquid feces and ptyalism were found; also recorded: For D1003, 10 mL liquid feces and ptyalism were found 4 hr after; also recorded: For D1004, 15 mL chyme and soft feces were found 55 min after dosing; also recorded: For D1004, 2 mL liquid feces and ptyalism were found 80 min after; also recorded: For D1004, 20 mL chyme was found 90 min after dosing on day 3; also recorded: For D1004, ptyalism was found 2 hr after dosing on day 3. 8 hr recover; also recorded: For D1001, 10 mL chyme was found 55 min after dosing on day 3
Clinical Observation ([3]; day 4): For D1005, 15 mL chyme was found 40 min after dosing on day 4; also recorded: For D1005, 10 mL chyme and 10 mL liquid feces were found 2 hr after; also recorded: For D1001, 15 mL chyme was found 2 hr after dosing on day 4; also recorded: For D1001, ptyalism and 15 mL liquid feces were found 3 hr after; also recorded: For D1002, 15 mL chyme and 10 mL liquid feces were found 2 hr after; also recorded: For D1002, ptyalism and 5 mL liquid feces were found 3 hr after dosing; also recorded: For D1003, soft feces was found 3 hr after dosing on day 4; also recorded: For D1004, ptyalism was found 2 hr after dosing on day 4; also recorded: For D1004, 8 mL liquid feces was found 3 hr after dosing on day 4; also recorded: For D1004, soft feces was found 220 min after dosing on day 4
Clinical Observation ([3]; day 5): For D1003, 5 mL chyme was found 2 hr after dosing on day 5.
Clinical Observation ([3]; day 6): For D1005, 15 mL chyme, 30 mL liquid feces and ptyalism were found; also recorded: For D1005, 15 mL chyme was found 2 hr after dosing on day 6; also recorded: For D1001, ptyalism was found 30 min after dosing on day 6. 8 hr; also recorded: For D1001, ptyalism and soft feces were found 1 hr after dosing on day 6; also recorded: For D1002, ptyalism was found 30 min after dosing on day 6. 8 hr; also recorded: For D1002, 10mL liquid feces and ptyalism were found 1 hr after dosing; also recorded: For D1002, 20 mL chyme, 10 mL liquid feces and ptyalism were found; also recorded: For D1003, ptyalism was found 30 min after dosing on day 6. 8 hr; also recorded: For D1003, 30 mL liquid feces, ptyalism and tremor were found 2 hr; also recorded: For D1003, 10 mL chyme was found 3 hr after dosing on day 6; also recorded: For D1004, 10 mL liquid feces and ptyalism were found 1 hr after; also recorded: For D1004, 5 mL chyme was found 3 hr after dosing on day 6
Clinical Observation ([3]; day 7): For D1005, about 8 mL liquid feces was found 2 hr after dosing on day 7; also recorded: For D1001, ptyalism was found 1 hr after dosing on day 7. 4 hr recover; also recorded: For D1001, miosis was found 1 hr after dosing on day 7. 8 hr recover; also recorded: For D1001, about 5 mL liquid feces and about 3 mL yellow liquid; also recorded: For D1002, ptyalism was found 1 hr after dosing on day 7. 4 hr recover; also recorded: For D1003, ptyalism was found 1 hr after dosing on day 7. 4hr recover; also recorded: For D1003, about 10 mL liquid feces was found 2 hr after dosing on day 7; also recorded: For D1004, ptyalism was found 1 hr after dosing on day 7. 4 hr recover; also recorded: For D1004, about 3 mL yellow liquid vomitus was found 1 hr after
AUC(0-inf) (in vivo; 0.3 mg/kg): 212 ng·h/mL
AUC(0-t) (in vivo; 0.3 mg/kg): 208 ng·h/mL
Cmax (in vivo; 0.3 mg/kg): 216 ng/mL
Tmax (in vivo; 0.3 mg/kg): 0.417 h
half-life (in vivo; 0.3 mg/kg): 2.82 h
AUC(0-inf) (in vivo; 1 mg/kg): 988 ng·h/mL
AUC(0-t) (in vivo; 1 mg/kg): 982 ng·h/mL
Cmax (in vivo; 1 mg/kg): 686 ng/mL
Tmax (in vivo; 1 mg/kg): 1 h
half-life (in vivo; 1 mg/kg): 2.28 h
concentration at 1 h [4]: 608 ng/mL
Vss as fold of total body water (0.7 L/kg) ([5]; male, Sprague Dawley): approximately 2.4 fold
plasma clearance as % of the normal liver blood flow in rats (55 mL/min/kg) ([5]; male, Sprague Dawley): approximately 50%
AUC(0-t) ([5]; male, Sprague Dawley, AUClast of Compound 1): 917 ng·h/mL
C0 ([5]; male, Sprague Dawley, C0 of Compound 1): 1520 ng/mL
clearance ([5]; male, Sprague Dawley, CL of Compound 1): 27.2 mL/min/kg
half-life ([5]; male, Sprague Dawley, T1/2 of Compound 1): 0.83 h
Vd ([5]; male, Sprague Dawley, VSS of Compound 1): 1.71 L/kg
PK parameters of Compound 1, single-agent vs co-administration with fesoterodine [5]: comparable
increase in exposure of Compound 1 following co-administration of fesoterodine fumarate, AUC0-inf [6, 10]: 29.0%
increase in exposure of Compound 1 following co-administration of fesoterodine fumarate, AUC0-t [6, 10]: 30.0%
increase in exposure of Compound 1 following co-administration of fesoterodine fumarate, Cmax ([6]; Group 2, 40 mg Compound 1, 8 mg fesoterodine fumarate, p-value: 0.0347): 50.0%
compound 1 concentration in CSF at 1hour post-dose, mean ([6]; human, in vivo, 1 h): 50.30 ng/mL
mean compound 1 concentration in CSF at 1 hour post-dose ([6]; human, in vivo, 1 h): 56.96 ng/mL
Tmax ([6]; human, in vivo, single oral doses, healthy subjects, read-out: median tmax): 0.65 to 1.17 h
Salivation (mg) (mean value), 10 min [7, 11]: 414.44 mg
Salivation (mg) (mean value), 20 min [7, 11]: 126.95 mg
Salivation (mg) (mean value), 30 min [7, 11]: 59.21 mg
Salivation (mg) (mean value), 40 min [7, 11]: 61.22 mg
Salivation (mg) (mean value), 50 min [7, 11]: 24.79 mg
Salivation (mg) (mean value), 60 min [7, 11]: 22.15 mg
Salivation (mg) (mean value), Total [7, 11]: 708.76 mg
effect on salivation compared to 0.9% saline vehicle control ([7]; Compound 1 IV alone): significant effect in increase in salivation
subjects who reported TEAEs ([8]; Group 1, 1 mg, placebo 50.0%): ~33.3%
subjects who reported TEAEs ([8]; Group 1, 3 mg, placebo 50.0%): About 50.0%
subjects who reported TEAEs ([8]; Group 1, 10 mg, placebo 50.0%): About 50.0%
subjects who reported TEAEs ([8]; Group 1, 20 mg, placebo 50.0%): About 50.0%
subjects who reported TEAEs ([8]; Group 1, 40 mg, placebo 50.0%): ~83.3%
subjects who reported TEAEs ([8]; Group 1, 60 mg, placebo 50.0%): ~100%
deaths, serious TEAEs, discontinuations ([8]; Group 1, 1-60 mg single oral dose): no deaths or serious TEAEs reported, and no subjects discontinued the study due to a TEAE
total treatment-emergent adverse events (TEAEs) ([8]; Group 1, 36 subjects who received any dose of compound 1 (1-60 mg single oral)): 95
subjects with TEAEs (number of the 36 subjects) ([8]; Group 1, any dose of compound 1): 22
subjects with TEAEs ([8]; Group 1, any dose of compound 1, of the 36 subjects): 61.6%
day of onset of TEAEs (Day 1 = day of dosing) [8, 12]: 1 days
deaths, serious or severe TEAEs [8, 12]: no deaths, serious or severe TEAEs reported
most frequent TEAEs observed [8, 12]: salivary hypersecretion and dizziness
number of TEAEs reported [8, 12]: 9
subjects who reported TEAEs [8, 12]: 100.0%
MTD of Compound 1 when administered alone ([8]; single oral dose, healthy subjects): 40 mg
safety and tolerability ([8]; single oral doses ranging from 1 mg to 40 mg, healthy subjects): generally safe and well tolerated

— patent US20250032460A1, “METHODS OF TREATING NEUROLOGICAL DISORDERS” (MapLight Therapeutics, Inc., priority 2021, published 2025)
